{
  "source": "patent US20190365705A1",
  "about": "“TOPICAL TOCOTRIENOL COMPOSITIONS AND METHODS OF INCREASING SKIN STEM CELLS” (OHIO STATE INNOVATION FOUNDATION, priority 2017, published 2019)",
  "key": {"[1]": {"system": "β-catenin", "assay": "Topical IWR-1 pre-treatment of adult murine skin followed by TRF", "type": "in vivo, C57B1/6 mice", "method": "Mice were randomly (www.random.org) divided into different groups as indicated in corresponding figure legends. The dorsal skin was shaved and hair was depilated using Nair® two days before experiments. TRF or its placebo (PBO) was applied topically at a dose of 5 mg/cm^2 skin, thrice per week. During the procedure, mice were anesthetized by low-dose isoflurane inhalation. Digital photographs were collected (Canon PowerShot S6 and Dermascope from Dino-lite ProII). In some experiments, to inhibit β-catenin expression, IWR-1 (Sigma; I0161) was used. A 10% DMSO stock IWR-1 solution was prepared and diluted with glycerol to a final concentration of 2 μg per 0.5 cm^2 of skin. This solution was applied topically on the dorsal skin of C57B1/6 mice at a dose of 12.5 μL/0.5 cm^2 for four consecutive days of IWR-1 or vehicle followed by 7 consecutive days of […] for one hour under occlusive dressing (Tegaderm™, 3M, St. Paul, Minn.).\nDetection of anagen induction. Promotion of hair growth was evaluated by observing the skin color which is indicative of the telogen-to-anagen conversion.^50 Skin, collected and 8 μm formalin-fixed paraffin-embedded skin sections, were deparaffinized and stained with hematoxylin & eosin. Mosaic images at 20× were collected using Axioscanner (Zeiss Microscopy). From histological characterization of the sections, anagen follicles in dermis and subcutis layers were enumerated.\nHistology, immunohistochemistry (IHC) and immunocytochemistry (ICC). Histology of skin was performed from 8 μm thick paraffin sections after staining with Hematoxylin and Eosin (H&E). Immunostaining of Ki67 (Abcam, ab15580; 1:400), LGR6 (Abcam, ab126747; 1:100), CD34 (Abcam, ab8158; 1:200), OCT4 (Abcam, ab19857; 1:200), SOX9 (Abcam, ab185230; 1:1000), KLF4 (Abcam; ab151733, 1:200), c-MYC (Abcam; ab32072, 1:200), NANOG (Abcam; ab80892, 1:200), K17 (Abcam, ab53707; 1:100), K15 (Abcam, ab52816; 1:100), Claudin (Invitrogen, RB9209P; 1:200), Occludin (Invitrogen, 711500; 1:200), ZO-1(Invitrogen, 617300; 1:200), ZO-2 (Invitrogen, 389100; 1:200), E-cadherin (Life Technologies, 131900; 1:200) and β-catenin (Abcam, ab22656; 1:200) were performed on paraffin and cryosections of skin sample using specific antibodies as indicated.^57 For immunocytochemistry, cells were fixed with cell fixation buffer (ebiosciences; 00-8222-49) and stained for respective antibodies. Specificity of the antibodies were validated using rabbit isotype control (Abcam, ab27478; 1:400), rat isotype control (Abcam, ab18412; 1:200), and mouse isotype control (Abcam, ab18443; 1:200) (FIG. 13). Briefly, OCT embedded tissue were cryosectioned (10 μm), fixed with cold acetone, blocked with 10% normal goat serum and incubated with specific antibodies overnight at 4° C. Signal was visualized by subsequent incubation with either biotinylated-tagged for DAB staining and fluorescence-tagged appropriate secondary antibodies (Alexa 488-tagged α-mouse, 1:200; Alexa 568-tagged α-mouse, 1:200; Alexa 488-tagged α-rabbit, 1:200; Alexa 568-tagged α-rabbit, 1:200; Alexa 568-tagged α-rat, 1:200)."}, "[2]": {"system": "β-catenin-Tcf3 complex", "assay": "Tcf3 decoy transfection of keratinocytes with tocotrienol treatment (quantitative immunocytochemistry)", "type": "cell-based, human", "settings": "24 h", "method": "(§1) Cell and cell culture. Immortalized human keratinocytes (HaCaT) were grown in Dulbecco's low-glucose modified Eagle's medium (Life Technologies) as described previously.^55 Cells were maintained in a standard culture incubator with humidified air containing 5% CO2 at 37° C.\nSynthesis of Tcf3 decoy and control double-stranded oligodeoxynucleotides. Tcf3 decoy and control double-stranded oligodeoxynucleotides were prepared as described previously.^22 Briefly, FAM labelled phosphorothioate oligodeoxynucleotides were synthesized and purified by Sigma-Aldrich. The oligonucleotides sequence used were as follow: Tcf3 decoy sense, 5′-6FAM-CCGGGCTTTGATCTTTGC-3′ (SEQ ID NO:1); Tcf3 decoy anti-sense, 5′-6FAM-GCAAAGATCAAAGCCCGG-3′ (SEQ ID NO:2); Tcf3 scramble sense, 5′-6FAM-CCGGGTCAGTTCTTTTGC -3′ (SEQ ID NO:3); Tcf3 scramble anti-sense, 5′-6FAM-GCAAAAGAACTGACCCGG -3′ (SEQ ID NO:4). […]\n(§2) Histology, immunohistochemistry (IHC) and immunocytochemistry (ICC). […] Signal was visualized by subsequent incubation with either biotinylated-tagged for DAB staining and fluorescence-tagged appropriate secondary antibodies (Alexa 488-tagged α-mouse, 1:200; Alexa 568-tagged α-mouse, 1:200; Alexa 488-tagged α-rabbit, 1:200; Alexa 568-tagged α-rabbit, 1:200; Alexa 568-tagged α-rat, 1:200)."}, "[3]": {"system": "β-catenin and Tcf3", "assay": "Proximity ligation assay (PLA) for β-catenin-Tcf3 in keratinocytes", "type": "cell-based, human", "settings": "1 μM, 24 h", "method": "as §1\nIn situ proximity ligation assay (PLA). PLA was performed as described previously using Sigma Duolink® in situ red starter kit for […] (DUO92105) following manufacturer's instructions except that the incubation time was prolonged to 90 minutes.^58 The assay was performed using rabbit Tcf3 (Abcam, ab69999; 1:50) and mouse β-catenin (Abcam, ab22656; 1:200) antibodies. Slides were imaged using Olympus FV 1000 spectral confocal microscope."}, "[4]": {"system": "human HaCaT keratinocytes", "assay": "E-cadherin expression and β-catenin nuclear translocation in HaCaT keratinocytes (immunocytochemistry)", "type": "cell-based", "settings": "24 h", "method": "as §1\nas §2, with “(ICC). Histology of skin was performed from 8 μm thick paraffin sections after staining with Hematoxylin and Eosin (H&E).” for “(ICC).”"}},
  "note": "{6FAM} = 6-carboxyfluorescein label",
  "data": [
    {"compound": "O=C(Nc1cccc2cccnc12)c1ccc(N2C(=O)[C@@H]3[C@H](C2=O)[C@@H]2C=C[C@H]3C2)cc1", "note": "[IWR-1]", "values": [
      {"measurement": "TRF-induced translocation of β-catenin to the nucleus", "setting": "[1]", "result": "inhibited TRF-induced translocation of β-catenin to the nucleus"},
      {"measurement": "lowering of E-cadherin in response to TRF", "setting": "[1]", "result": "did not influence"},
      {"measurement": "epidermal β-catenin", "setting": "[1]; TRF-treated adult skin", "result": "effective in degrading epidermal β-catenin"},
      {"measurement": "number of anagen hair follicles induced by topical TRF", "setting": "[1]; day 11 (day 7 post TRF application), vs vehicle", "result": "significantly decreased"},
      {"measurement": "TRF-stimulated keratinocyte proliferation (Ki67+ cells)", "setting": "[1]; vs vehicle DMSO", "result": "eliminating the effect of TRF on stimulating keratinocytes proliferation"}
    ]},
    {"compound": "Tcf3 decoy: FAM labelled phosphorothioate double-stranded oligodeoxynucleotide based on Tcf3 binding consensus sequence (SEQ ID NO:1/2) (sense CCGGGCTTTGATCTTTGC; antisense GCAAAGATCAAAGCCCGG; DNA, all phosphorothioate, 5' {6FAM}, methylation of C not given here)", "values": [
      {"measurement": "effect on tocotrienol-induced stemness and pluripotency factors", "setting": "[2]; decoy 0.1 μM vs scramble 0.1 μM, tocotrienol 1 μM", "result": "markedly blunted"}
    ]},
    {"compound": "α-tocotrienol [pure tocotrienol]", "values": [
      {"measurement": "interaction of β-catenin and Tcf3 (PLA)", "setting": "[3]", "result": "interaction of β-catenin and Tcf3 in the nucleus"},
      {"measurement": "membrane E-cadherin expression", "setting": "[4]; 1 μM", "result": "sharp decrease"},
      {"measurement": "nuclear translocation of β-catenin", "setting": "[4]; pure tocotrienol 1 μM", "result": "nuclear translocation of β-catenin"},
      {"measurement": "stemness and pluripotency factors (SOX9, OCT4, K17, K15, KLF4, c-MYC, NANOG) in keratinocytes", "setting": "[2]; pure tocotrienol 1 μM", "result": "induction of stemness as well as pluripotency factors"}
    ]}
  ]
}
